These results are taken from patent US20240254109A1, “SALT CONTAINING PIPERAZINE POLYCYCLIC DERIVATIVE, CRYSTAL FORM THEREOF, PREPARATION METHOD THEREFOR, AND USE THEREOF” (Shanghai Hansoh Biomedical Co., Ltd., priority 2021, published 2024).

Each structure is given as a SMILES string.

Data set [1] is described as follows: Study on the crystal form of salt of compound (crystallization with counter ion acids). The format is physicochemical. The following applies: for Phenomenon: base: acid=1:1.2, 25° C.; for Phenomenon after the addition of acid / Results: volatilization method; for Phenomenon after the addition of acid: crystal form B of free base in tetrahydrofuran, base: acid=1:1.2; for Results: tetrahydrofuran volatilized at room temperature. On the procedure: To identify which counter ion acids can form crystal form of salt of compound by selecting different counter ion acids according to suitable crystallization methods.
1 mL of the solution was taken into a glass bottle, and different counter ion acids (molar reaction ratio of base: acid=1:1.2) were added, and then the glass bottle was opened at room temperature to volatile solvent. The amorphous or oily was pulped with 200 μL of ethyl acetate.
1) 10 mg of crystal form B of free base was weighed, and 200 μL of methanol solvent was added, and counter ion acid (molar reaction ratio of base: acid=1:1.2) was added respectively at 25° C.
2) 85 mg of crystal form B of free base was weighed, and ethyl acetate was added to produce a clear solution. Different counter ion acids (molar reaction ratio of base: acid=1:1.2) were added respectively at 25° C.

Data set [2] in a line: Study on the salt form of compound (salt forming with counter ion acids). The format is physicochemical. The following applies: for Phenomenon after the addition of acid: acid 1:1.2, room temperature. As to the method:
To identify which counter ion acids can form salts with the compound by selecting different counter ion acids.
10 mg of free base was weighed. 200 μL of tetrahydrofuran was added. Different counter ion acids were added separately at room temperature, and the solvent was volatilized to dry. If a solid was precipitated during the reaction, the suspension was centrifuged, and the resulting solid was vacuum dried at 50° C. […] The resulting suspension was centrifuged and the supernatant was removed. The solid was dried in vacuum at 50° C.
10 mg of free base was weighed, and 200 μL of acetone was added. Different counter ion acids were added separately at room temperature, and the solvent was volatilized to dry. If a solid was precipitated, the resulting solid was dried in vacuum overnight at 50° C. […] The resulting suspension was centrifuged, and the supernatant was removed. The solid was dried in vacuum at 50° C.
10 mg of free base compound was weighed, and 100 μL of organic solvent was added to the suspension state. The corresponding acid was added according to the molar ratio of 1:1.2 at room temperature, and the reaction was stirred for 4d. The reaction was centrifuged, and the resulting solid was dried in vacuum at 50° C.

A short description of data set [3]: Pharmacokinetic assay in Balb/c mice (plasma and brain tissue). The following applies: p.o. 5 mg/kg. The format is in vivo. On the procedure: (III). Pharmacokinetic Assay in Balb/c Mice
Balb/c mice were used as test animals. The pharmacokinetic behavior in mouse body (plasma and brain tissue) of the compounds of Examples of the present invention was studied at an oral administration dose of 5 mg/kg.
Male Balb/c mice (12 mice per group), purchased from Shanghai Jiesijie Laboratory Animal Co., LTD, with Certificate No.: SCXK (Shanghai) 2013-0006 N0.311620400001794.
The test compound was dissolved in 0.5% CMC-Na (1% Tween80) by sonication to formulate a clear solution or homogeneous suspension.
After an overnight fast, male Balb/c mice (12 mice per group) were administered p.o. with the test compound at an administration dose of 5 mg/kg and an administration volume of 10 mL/kg.
0.2 mL of blood was taken from the heart of the mouse before administration and at 1, 2, 4, 8 and 24 hours after administration, and the mice were sacrificed with CO2. The samples were stored in EDTA-K2 tubes, and centrifuged for 6 minutes at 4° C., 6000 rpm to separate the plasma. The plasma samples were stored at −80° C. Whole brain tissue was taken out, weighed, placed in a 2 mL centrifuge tube, and stored at −80° C.
1) 160 μL of acetonitrile was added to 40 μL of the plasma sample for precipitation, and then the mixture was centrifuged for 5 to 20 minutes at 3500×g.
2) 90 μL of acetonitrile containing internal standard (100 ng/mL) was added to 30 μL of the plasma and brain homogenate sample for precipitation, and then the mixture was centrifuged for 8 minutes at 13000 rpm.
3) 70 μL of water was added to 70 μL of the treated supernatant and mixed by vortex for 10 minutes. 20 μL of the supernatant was taken to analyze the concentration of the test compound by LC/MS/MS. LC/MS/MS analytical instrument: AB Sciex API 4000 Qtrap.
• Liquid chromatography condition: Shimadzu LC-20AD pump • Chromatographic column: Agilent ZORBAX XDB-C18 (50×2.1 mm, […]); Mobile phase: Eluent A was 0.1% formic acid in water, and Eluent B was acetonitrile • Flow rate: 0.4 mL/min • Elution time: 0-4.0 minutes, the eluent is as follows:
The main parameters of pharmacokinetics were calculated by WinNonlin 6.1.

Where [4] appears, read: free base suspended in 100 μL Isopropanol.
Setting [5] is: free base suspended in 100 μL Isopropanol, acid 1:1.2, stirred 4d.

In the case of `CC(=O)O` [1M acetic acid in methanol], the Phenomenon result in data set [1] (solvent Isopropanol) and in data set [1] (solvent Isopropyl ether) was “Turbid” in each case.
For the compound `O=C(O)/C=C/C(=O)O` [Fumaric acid], the “Phenomenon after the addition of acid” value in data set [2] (setting [4]) was “muddy”. The Product entry in data set [2] (setting [5]) is reported as “Salt forming”.
With `Cl` [1.0M hydrochloric acid (in methanol)], the Phenomenon result in data set [1] (solvent 2-Butanone) was “Clear”; in data set [1] (solvent 2-Methyl-tetrahydrofuran), “Suspension”; in data set [1] (solvent Acetone), “Suspension”; in data set [1] (solvent Ethanol), “Clear”; in data set [1] (solvent Ethyl acetate) it was “Suspension”; in data set [1] (solvent Ethyl formate), “Precipitation”. The Phenomenon entry in data set [1] (solvent Isopropanol), in data set [1] (solvent Isopropyl acetate) and in data set [1] (solvent Methyl tert-butyl ether) was “Suspension” in each case. The “Phenomenon after the addition of acid” value in data set [1] is “Clear”. For the same compound, in data set [1], the Results result is “Oil or gel”.
Turning to `CC(=O)O` [1.0M acetic acid (in methanol)], in data set [1], the “Phenomenon after the addition of acid” value is recorded as “Clear” and the Results entry is given as “Oil or gel”.
As for `O=C(O)/C=C/C(=O)O` [0.25M fumaric acid in ethanol], the Phenomenon result in data set [1] (solvent Isopropyl ether) was “Turbid”.
Consider `CC(=O)O` [Acetic acid], for which, in data set [2] (setting [4]), the “Phenomenon after the addition of acid” value is “muddy”. Besides, the Product entry in data set [2] (setting [5]) is reported as “Salt forming”.
`Br` [1.0M hydrobromic acid (in methanol)]: in data set [1], the “Phenomenon after the addition of acid” value is on record as “Clear” and the Results result is listed as “Oil or gel”.
Taken in the same sequence, the figures for `CS(=O)(=O)O` [1.0M methanesulfonic acid (in ethanol)] were “Clear” and “Oil or gel”.
`O=C(N[C@H]1C[C@@H](CCN2CCN(c3cccc(Cl)c3Cl)CC2)C1)C1(O)CC1` [Example 6B, N-(Cis-3-(2-(4-(2,3-dichlorophenyl)piperazin-1-yl)ethyl)cyclobutyl)-1-hydroxycyclopropane-1-carboxamide]: the Peak time tmax in data set [3] (Brain) turned out to be 60 min; in data set [3] (Plasma), 30 min.
In the case of `CS(=O)(=O)O` [Methanesulfonic acid (1 mol/L in EtOH)], in data set [2] (acetone volatilized to dry), the Product entry is on record as “Gel”. In addition, in data set [2] (stirred 4 hours at room temperature), the “After adding 200 μL of ethyl acetate” value was “Gel”.
Turning to `O=C(N[C@H]1C[C@@H](CCN2CCN(c3cccc(Cl)c3Cl)CC2)C1)c1ncco1` [Example 12B, N-(Cis-3-(2-(4-(2,3-dichlorophenyl)piperazin-1-yl)ethyl)cyclobutyl)oxazole-2-carboxamide], the results for the Peak time tmax in data set [3] (Brain) and in data set [3] (Plasma) were 60 min and 30 min, respectively.
